# From patent US8658693B2, “4-aminobenzonitrile selective androgen receptor modulators” (Eli Lilly and Company, priority 2011, dated 2014)
# Read-outs that look alike come from different tables or passages of the source.
# Legend:
# [1] = target: T1, human AR (androgen receptor) (Homo sapiens, UniProt P10275); test: Steroid hormone nuclear receptor binding assay, AR; conditions: HEK293 lysate, [3H]-methyltrienolone
# T1 construct: expressed in transfected cells; host or cells: HEK293
# T1 sequence (P10275 1-920): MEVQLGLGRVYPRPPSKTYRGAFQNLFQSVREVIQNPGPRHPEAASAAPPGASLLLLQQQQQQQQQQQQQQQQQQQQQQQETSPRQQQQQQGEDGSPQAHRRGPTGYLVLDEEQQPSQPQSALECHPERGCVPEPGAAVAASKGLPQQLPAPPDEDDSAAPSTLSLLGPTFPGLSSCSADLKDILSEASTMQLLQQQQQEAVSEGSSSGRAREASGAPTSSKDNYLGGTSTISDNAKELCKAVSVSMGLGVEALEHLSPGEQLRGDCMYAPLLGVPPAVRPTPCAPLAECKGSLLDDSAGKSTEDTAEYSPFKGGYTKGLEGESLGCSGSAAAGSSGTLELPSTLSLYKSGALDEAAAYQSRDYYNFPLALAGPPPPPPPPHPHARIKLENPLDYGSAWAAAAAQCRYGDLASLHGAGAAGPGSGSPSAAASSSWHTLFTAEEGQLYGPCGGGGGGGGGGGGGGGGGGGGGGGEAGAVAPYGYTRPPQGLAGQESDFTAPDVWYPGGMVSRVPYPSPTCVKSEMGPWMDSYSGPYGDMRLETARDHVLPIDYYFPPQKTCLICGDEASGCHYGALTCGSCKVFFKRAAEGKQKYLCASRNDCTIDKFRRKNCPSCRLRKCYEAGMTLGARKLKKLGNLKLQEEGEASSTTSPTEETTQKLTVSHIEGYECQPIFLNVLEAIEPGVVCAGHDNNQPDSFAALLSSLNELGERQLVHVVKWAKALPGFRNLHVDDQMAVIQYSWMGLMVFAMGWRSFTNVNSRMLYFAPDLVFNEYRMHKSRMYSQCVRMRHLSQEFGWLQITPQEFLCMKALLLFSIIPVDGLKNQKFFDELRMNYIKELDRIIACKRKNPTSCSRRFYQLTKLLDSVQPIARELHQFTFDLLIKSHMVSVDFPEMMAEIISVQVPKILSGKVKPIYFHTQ
# [2] = target: T2, human GR (glucocorticoid receptor) (Homo sapiens, UniProt P04150); test: Steroid hormone nuclear receptor binding assay, GR
# T2 construct: expressed in transfected cells; host or cells: HEK293
# T2 sequence (P04150 1-777): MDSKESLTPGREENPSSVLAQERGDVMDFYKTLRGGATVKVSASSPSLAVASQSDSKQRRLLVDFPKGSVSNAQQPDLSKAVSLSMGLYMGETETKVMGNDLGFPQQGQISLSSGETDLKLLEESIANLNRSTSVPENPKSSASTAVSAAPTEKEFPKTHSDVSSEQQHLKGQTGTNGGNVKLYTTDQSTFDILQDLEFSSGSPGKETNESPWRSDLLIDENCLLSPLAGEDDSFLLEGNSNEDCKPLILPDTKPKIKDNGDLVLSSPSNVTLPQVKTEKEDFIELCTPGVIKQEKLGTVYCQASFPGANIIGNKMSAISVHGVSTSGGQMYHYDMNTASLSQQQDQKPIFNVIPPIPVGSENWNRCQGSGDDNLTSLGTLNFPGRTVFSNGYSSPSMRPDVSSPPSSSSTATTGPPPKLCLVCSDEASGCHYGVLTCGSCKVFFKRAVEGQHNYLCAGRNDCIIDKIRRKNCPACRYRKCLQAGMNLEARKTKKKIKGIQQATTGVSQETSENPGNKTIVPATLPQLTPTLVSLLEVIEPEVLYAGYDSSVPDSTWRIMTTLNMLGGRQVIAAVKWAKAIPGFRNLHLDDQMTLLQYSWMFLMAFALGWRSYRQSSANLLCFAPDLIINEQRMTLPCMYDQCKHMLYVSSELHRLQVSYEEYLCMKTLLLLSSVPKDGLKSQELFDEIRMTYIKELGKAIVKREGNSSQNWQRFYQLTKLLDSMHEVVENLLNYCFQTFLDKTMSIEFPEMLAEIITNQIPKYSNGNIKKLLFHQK
# [3] = target: T3, human androgen receptor (AR) (Homo sapiens, UniProt P10275); test: C2C12 AR/ARE reporter assay; format: cell-based; conditions: mouse myoblast C2C12 cells, luciferase reporter, 24 h
# T3 construct: expressed in transfected cells; host or cells: mouse myoblast C2C12 cells
# T3 sequence (P10275 1-920): T1 sequence (P10275 1-920)
# [4] = target: T4, human PR (progesterone receptor) (Homo sapiens, UniProt P06401); test: Steroid hormone nuclear receptor binding assay, PR; conditions: HEK293 lysate, [3H]-methyltrienolone
# T4 construct: expressed in transfected cells; host or cells: HEK293
# T4 sequence (P06401 1-933): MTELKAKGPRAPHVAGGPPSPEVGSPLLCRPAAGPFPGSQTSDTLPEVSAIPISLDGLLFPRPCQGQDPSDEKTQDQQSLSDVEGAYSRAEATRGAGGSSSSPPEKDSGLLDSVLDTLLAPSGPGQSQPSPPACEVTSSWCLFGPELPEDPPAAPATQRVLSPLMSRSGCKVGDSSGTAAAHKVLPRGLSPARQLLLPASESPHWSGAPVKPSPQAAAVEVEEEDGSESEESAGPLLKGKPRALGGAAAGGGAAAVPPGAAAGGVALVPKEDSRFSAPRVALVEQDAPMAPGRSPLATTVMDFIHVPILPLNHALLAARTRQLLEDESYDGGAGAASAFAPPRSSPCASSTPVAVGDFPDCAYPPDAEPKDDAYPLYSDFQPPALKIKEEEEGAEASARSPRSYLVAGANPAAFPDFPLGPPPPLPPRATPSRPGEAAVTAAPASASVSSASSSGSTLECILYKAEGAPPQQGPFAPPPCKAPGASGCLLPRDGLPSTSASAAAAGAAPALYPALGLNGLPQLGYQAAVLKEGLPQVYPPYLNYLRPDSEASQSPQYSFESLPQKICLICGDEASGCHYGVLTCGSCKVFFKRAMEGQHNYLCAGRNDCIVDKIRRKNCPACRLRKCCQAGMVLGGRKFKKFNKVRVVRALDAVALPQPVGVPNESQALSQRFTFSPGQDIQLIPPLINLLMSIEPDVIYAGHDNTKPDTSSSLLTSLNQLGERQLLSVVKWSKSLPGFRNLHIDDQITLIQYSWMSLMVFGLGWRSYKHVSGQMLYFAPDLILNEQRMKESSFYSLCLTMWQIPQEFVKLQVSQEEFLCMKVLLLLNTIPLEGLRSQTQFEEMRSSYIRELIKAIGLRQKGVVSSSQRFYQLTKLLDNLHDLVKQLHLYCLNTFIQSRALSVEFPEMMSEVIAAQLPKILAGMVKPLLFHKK
# [5] = target: T5, human MR (mineralocorticoid receptor) (Homo sapiens, UniProt P08235); test: Steroid hormone nuclear receptor binding assay, MR; conditions: HEK293 lysate, [3H]-aldosterone
# T5 construct: expressed in transfected cells; host or cells: HEK293
# T5 sequence (P08235 1-984): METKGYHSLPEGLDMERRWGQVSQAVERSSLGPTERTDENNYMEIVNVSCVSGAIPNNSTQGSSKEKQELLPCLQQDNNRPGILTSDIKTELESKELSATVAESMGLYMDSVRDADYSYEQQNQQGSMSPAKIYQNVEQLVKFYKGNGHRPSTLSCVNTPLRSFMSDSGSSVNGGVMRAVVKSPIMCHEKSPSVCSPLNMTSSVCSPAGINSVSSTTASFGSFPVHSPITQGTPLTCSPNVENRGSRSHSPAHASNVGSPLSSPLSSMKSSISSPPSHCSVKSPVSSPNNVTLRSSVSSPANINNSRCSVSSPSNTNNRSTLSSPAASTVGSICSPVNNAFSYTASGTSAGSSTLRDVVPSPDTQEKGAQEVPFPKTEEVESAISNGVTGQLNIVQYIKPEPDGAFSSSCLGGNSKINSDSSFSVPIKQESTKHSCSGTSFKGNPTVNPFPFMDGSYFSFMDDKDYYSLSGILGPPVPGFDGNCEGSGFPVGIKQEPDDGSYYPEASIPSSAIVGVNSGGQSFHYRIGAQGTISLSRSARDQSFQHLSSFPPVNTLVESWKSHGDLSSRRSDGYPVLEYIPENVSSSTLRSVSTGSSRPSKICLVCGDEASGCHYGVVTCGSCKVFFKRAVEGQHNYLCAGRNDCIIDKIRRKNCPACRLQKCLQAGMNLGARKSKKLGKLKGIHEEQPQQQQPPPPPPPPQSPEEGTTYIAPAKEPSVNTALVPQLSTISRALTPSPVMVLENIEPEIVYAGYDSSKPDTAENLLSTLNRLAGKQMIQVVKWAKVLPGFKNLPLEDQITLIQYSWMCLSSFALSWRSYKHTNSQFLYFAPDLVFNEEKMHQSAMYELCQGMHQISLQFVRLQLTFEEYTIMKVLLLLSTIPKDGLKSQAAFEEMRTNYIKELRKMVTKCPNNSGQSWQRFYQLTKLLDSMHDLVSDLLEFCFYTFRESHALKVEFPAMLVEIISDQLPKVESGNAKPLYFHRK
# [6] = test system: HDL cholesterol in Cynomolgus monkeys; conditions: transdermal delivery
# [7] = HEK293 lysate, [3H]-dexamethasone, read-out: GR (Ki nM)
smiles,measurement,setting,value
"CCc1c(NC2CCOCC2(C)O)ccc(C#N)c1Cl (single isomer, unassigned; diastereomer 2) [Example 32, 2-Chloro-3-ethyl-4-[[3-hydroxy-3-methyl-tetrahydropyran-4-yl]amino]benzonitrile, Diastereomer 2]",Ki,[1],162 nM
same,Ki,[2]; [7],> 5820 nM
same,EC50,[3],0.274 µM
same,Ki,[4],4290 nM
same,Ki,[5],3960 nM
"Cc1c(N[C@H]2CC[C@H](O)[C@]2(C)O)ccc(C#N)c1Cl (single isomer, unassigned) [Example 20]",Ki,[1],38.1 nM
same,Ki,[2]; [7],> 5730 nM
same,EC50,[3],0.146 µM
same,Ki,[4],> 7960 nM
same,Ki,[5],> 7150 nM
"Cc1c(N[C@@H]2CCC[C@@]2(C)O)ccc(C#N)c1Cl (single isomer, unassigned) [Example 1]",effect on HDL,[6],minimal effect
same,Ki,[2],> 6020 nM
